This is an account of results in patent US8282688B2, “Laccase mediators and methods of use” (Danisco US Inc., priority 2006, dated 2012).

Holding throughout (format): biochemical
Test [1] concerns Myceliophtora laccase (Denilite II). As to the kind of experiment: Soluble indigo bleaching at two pH values, Myceliophtora laccase (Example 3). The protocol: (§1) A saturated solution of indigo in N-methylpyrrolidone (NMP) was prepared by stirring indigo (30 mg) in NMP (10 ml) at room temperature for 5 hours. The NMP solution was diluted 10-fold into an aqueous buffer solution resulting in a blue solution. For example, dilution into 50 mM sodium acetate buffer at pH 5, or 50 mM sodium phosphate buffer at pH 7. Solutions were shaken well immediately before use.
(§2) The assay for the bleaching of the solubilized indigo substrate was performed in a 96-well microtitre plate whereby each well received the soluble indigo solution in 50 mM sodium acetate buffer at pH 5 (180 uL), laccase (10 ppm enzyme) and mediator solution (from a 20 mM stock solution in methanol). The total volume of each well was adjusted to 200 uL with deionzed water. A control containing laccase only was run in duplicate. The plate was sealed and incubated at 50° C. for 2 hours at 800 rpm on a heated agitator (Thermomixer, Eppendorf). Following this period, the plates were unsealed and a solution of ascorbic acid (20 uL of a 10% aqueous solution) added to each well in order to reduce the oxidized forms of the mediators. The extent of indigo bleaching was then assessed by determining the absorbance for each well at 600 nm using a microtitre plate reader. The lower the absorbance reading, the greater the extent of indigo bleaching.
(§3) Laccases derived from Myceliophtora (Denilite® II, Novozymes, Bagsvaerd, Denmark), Thielavia (Ecostone LCC10, AB enzymes, Darmstadt, Germany) and Cerrena sp. were assessed for their ability to bleach solubilized indigo in conjunction with low molecular weight mediators at two pH values.
(§4) Bleaching of solubilized indigo in 96-well microtitre plates was performed as described in Example 1, using 3 different laccases at pH values of 5 and 7.

For test [2], the system named is Thielavia laccase (Ecostone LCC10). As to the kind of experiment: Soluble indigo bleaching at two pH values, Thielavia laccase (Example 3). How it is done:
as §1, §2, §3, §4

Test [3] has as its system Thielavia sp. laccase (Ecostone LCC10). As to the kind of experiment: Bleaching of solubilized indigo, Thielavia sp. laccase with mediators (Example 2). To be noted: laccase 10 ppm, pH 5, 50° C., 2 hours, n = 2. How it is done:
An assay for the bleaching of the solubilized indigo substrate by laccase/mediator combinations was performed in a 96-well microtitre plate as follows
as §1, §2

The next test has as its system Cerrena sp. laccase. Put plainly: Soluble indigo bleaching at two pH values, Cerrena sp. laccase (Example 3). The protocol:
as §1, §2, §3, §4

The test system of another test is C. unicolor laccase. Put plainly: Bleaching of denim swatches with C. unicolor laccase (Example 4). Details: key to ΔL Denim swatch Frontside / Δb Denim swatch Frontside / ΔL Denim swatch Backside / Δb Denim swatch Backside / Δa Denim swatch Backside / Δa Denim swatch Frontside: difference between initial and final CIE L*a*b* values; key to ΔE (total color difference) Denim swatch Backside / ΔE (total color difference) Denim swatch Frontside: ΔE = (ΔL²+Δa²+Δb²)^1/2 from CIE L*a*b* before/after bleaching. The conditions noted are these: for ΔE (total color difference) Denim swatch Backside / ΔE (total color difference) Denim swatch Frontside / ΔL Denim swatch Backside / ΔL Denim swatch Frontside / Δa Denim swatch Backside / Δb Denim swatch Backside / Δb Denim swatch Frontside: laccase 20 ppm, pH 6, 50° C., 2 hours. The protocol:
Denim legs (made out of sulfur bottom/indigo dyed denim fabric from Cone Mill, style number 1662P) were pretreated with IndiAge® 2XL at a dose of 1 gram per liter in a 50 lb lab scale tumbling washer. The liquor ratio was 6 to 1 (5 kg substrate in 30 liters of water) and the treatment was performed at 55° C. at pH 4.5 for 1 hour. A warm rinse followed the cellulase treatment, after which the fabric was dried in a tumble dryer. A punch press was used to cut ⅝ inch denim disks from IndiAge® 2XL pretreated denim legs. Each denim disk is pre read with a Chroma Meter CR-200 by Minolta in order to determine the CIE L*a*b* values of both the front and backside of the fabric disk.
One denim disk is placed in each well of two duplicate 12 well micro-titer plates. Each well received C. unicolor laccase (20 uL of 1/20 dilution, approx. 20 ppm), mediator (200, 100, 50 or 20 uL of a 20 mM stock solution in methanol) and 50 mM potassium phosphate buffer, pH 6 for a total volume of 2 mL/well. The mediators were methyl syringate (MS), 4-cyano-2,6-dimethoxyphenol (SN) and 3,4,5-trimethoxyphenol (TMP). The plates were sealed and incubated at 50° C. for 2 hours at 150 rpm in a standard incubator. Following this period, the swatches were removed from the plates and carefully placed on a filter paper in a Buchner funnel and washed with copious amounts of water, followed by drying of the residual water under high vacuum overnight. The swatches were then re-read with the chromometer in order to determine the CIE L*a*b* values of both the front and backside of the disk following bleaching. The total color difference (ΔE) is calculated from the difference between the initial and final CIE L*a*b* values according to the formula ΔE=(ΔL^2+Δa^2+Δb^2)^1/2 The total color differences (ΔE) as a function of mediator concentration are plotted in FIGS. 5 and 6.

The structures appear in SMILES notation. Several values for one entry are separate records, joined by “and”; a condition that tells them apart may be missing. Equal entries are not always repeated.

As to `COc1cc(C(N)=O)cc(OC)c1O` [SA, 4-carboxamido-2,6-dimethoxyphenol], the “ΔA600 Myceliophtora” value came to 0.254 in test [1] (pH 5, mediator 250 uM) and 0.220 in test [1] (pH 7, mediator 250 uM). Besides, the “ΔA600 Thielavia” value in test [2] (pH 5, mediator 250 uM) is listed as 0.170; in test [2] (pH 7, mediator 250 uM), 0.162. Moreover, the “ΔA600 (change in absorbance at 600 nm relative to control)” value in test [3] (mediator 50 mM Concentration (head)) is 0.088; in test [3] (mediator 500 mM Concentration (head)) it was 0.170. Besides, the “ΔA600 Cerrena” value is 0.142 with Cerrena sp. laccase (pH 5, mediator 250 uM) and 0.128 in the test on Cerrena sp. laccase (pH 7, mediator 250 uM).

As to `COc1cc(C#N)cc(OC)c1O` [SN, 4-cyano-2,6-dimethoxyphenol], in the test with C. unicolor laccase (C. unicolor laccase 20 ppm, 200-2000 uM mediator), the “effectiveness as mediator for denim swatch bleaching” value was “most effective mediator”. In the test on C. unicolor laccase (mediator 200 uM), the “ΔE (total color difference) Denim swatch Backside” value was 10.39 and 10.37; the “ΔE (total color difference) Denim swatch Frontside” value was 7.24 and 8.51; the “ΔL Denim swatch Backside” value was 8.38 and 8.67; the “ΔL Denim swatch Frontside” value is 6.63 and 7.98. In the test with C. unicolor laccase (mediator 200 uM), the “Δa Denim swatch Backside” value was 0.54 and 0.38; the “Δb Denim swatch Backside” value was 6.12 and 5.67; the “Δb Denim swatch Frontside” value is 2.57 and 2.67. In addition, in the test with C. unicolor laccase (mediator 500 uM), the “ΔE (total color difference) Denim swatch Backside” value was 13.43 and 14.11; the “ΔE (total color difference) Denim swatch Frontside” value was 15.59 and 13.17; the “ΔL Denim swatch Backside” value is 10.71 and 11.6; the “ΔL Denim swatch Frontside” value is 14.46 and 12.06. Further, in the test on C. unicolor laccase (mediator 500 uM), the “Δa Denim swatch Backside” value was 0.35 and 0.38; the “Δb Denim swatch Backside” value was 8.1 and 8.03; the “Δb Denim swatch Frontside” value was 5.51 and 4.92. For the same compound, in the test with C. unicolor laccase (mediator 1000 uM), the “ΔE (total color difference) Denim swatch Backside” value is 13.98 and 15.19; the “ΔE (total color difference) Denim swatch Frontside” value is 14.75 and 14.92; the “ΔL Denim swatch Backside” value is 11.45 and 12.1; the “ΔL Denim swatch Frontside” value is 13.54 and 13.84. Moreover, in the test on C. unicolor laccase (mediator 1000 uM), the “Δa Denim swatch Backside” value is 0.07 and 0.14; the “Δb Denim swatch Backside” value was 8.02 and 9.19; the “Δb Denim swatch Frontside” value is 5.47 and 4.98. Moreover, in the test with C. unicolor laccase (mediator 2000 uM), the “ΔE (total color difference) Denim swatch Backside” value is 15.31 and 16.59; the “ΔE (total color difference) Denim swatch Frontside” value was 16.03 and 14.48; the “ΔL Denim swatch Backside” value was 12.34 and 13.58; the “ΔL Denim swatch Frontside” value is 14.79 and 13.23. In the test on C. unicolor laccase (mediator 2000 uM), the “Δb Denim swatch Backside” value is 9.06 and 9.52; the “Δb Denim swatch Frontside” value was 5.8 and 5.58.
